SMILES | melting point
COc1cc(-c2nc3ccccn3c2C)ccc1OCc1ccccc1.Cl | 241 to 243 °C
COc1cc(-c2cn3ccccc3n2)ccc1O.Cl | 276 to 278 °C
COc1cc(-c2nc3sccn3c2C)ccc1OCc1ccccc1.Cl | 228 to 230 °C
COc1cc(-c2nc3ccccn3c2Cl)ccc1OCc1ccccc1 [Example 2] | 103 to 104 °C
COc1cc(-c2nc3ccccn3c2Br)ccc1OCc1ccccc1 [Example 3] | 115 to 117 °C
COc1cc(-c2cn3ccccc3n2)ccc1OCc1ccc(F)cc1 [Example 6] | 144 to 146 °C
COc1cc(-c2cn3ccccc3n2)ccc1OCc1ccc(C(F)(F)F)cc1 [Example 7] | 172 to 173 °C
COc1cc(-c2cn3ccccc3n2)ccc1OCc1cc(F)ccc1C(F)(F)F [Example 8] | 125 to 126 °C
COc1cc(-c2cn3ccccc3n2)ccc1OCc1ccc(C)cc1 [Example 9] | 155 to 157 °C
COc1cc(-c2cnc3ccccn23)ccc1OCc1ccccc1 [Example 12, 3-(4-benzyloxy-3-methoxyphenyl)imidazo[1,2-a]pyridine] | 129 to 131 °C
c1ccc(COc2ccc(-c3cn4ccccc4n3)cc2)cc1 [Example 13] | 171 to 173 °C
COc1cc(-c2cn3cc(C)ccc3n2)ccc1OCc1ccccc1 [Example 15] | 135 to 136 °C
COc1cc(-c2cn3ccc(C)cc3n2)ccc1OCc1ccccc1 [Example 16] | 171 to 173 °C
COc1cc(-c2cn3cc(C(F)(F)F)ccc3n2)ccc1OCc1ccccc1 [Example 17] | 172 to 173 °C
COc1cc(-c2cn3cc(Cl)ccc3n2)ccc1OCc1ccccc1 [Example 18] | 177 to 179 °C
COc1cc(-c2nc3ccccn3c2Cl)ccc1OCc1ccc(Cl)cc1 [Example 19] | 139 to 140 °C
COc1cc(-c2nc3ccccn3c2Cl)ccc1OCc1cccc(F)c1 [Example 20] | 104 to 105 °C
COc1cc(-c2cn3ccccc3n2)ccc1OCc1cccc(Cl)c1 [Example 21] | 114 to 115 °C
COc1cc(-c2cn3ccccc3n2)ccc1OCc1ccc(Cl)c(Cl)c1 [Example 22] | 138 to 139 °C
COc1cc(-c2cn3ccsc3n2)ccc1OCc1ccccc1 [Example 24] | 130 to 132 °C
COc1cc(-c2nc3ccccn3c2C)ccc1OCc1ccc(Cl)cc1 [Example 26] | 114 to 115 °C

SMILES | melting point
COc1cc(-c2nc3ccccn3c2C)ccc1OCc1ccc(C)cc1 [Example 27] | 118 to 120 °C
COc1cc(-c2cn3cccnc3n2)ccc1OCc1ccccc1 [Example 28, 2-(4-benzyloxy-3-methoxyphenyl)imidazo[1,2-a]pyrimidine] | 168 to 169 °C
COc1cc(-c2cn3cccnc3n2)ccc1OCc1ccc(Cl)cc1 [Example 29] | 216 to 218 °C
COc1cc(-c2cn3ccccc3n2)ccc1OCc1ccc(Br)cc1 [Example 31] | 136 to 137 °C
COc1cc(-c2cn3cc(C)ccc3n2)ccc1OCc1ccc(Cl)cc1 [Example 32] | 140 to 142 °C
COc1cc(-c2cn3c(C)cccc3n2)ccc1OCc1ccccc1 [Example 33] | 130 to 132 °C
COc1cc(-c2cn3cccc(C)c3n2)ccc1OCc1ccccc1 [Example 34] | 99 to 100 °C
COc1ccc(COc2ccc(-c3cn4ccccc4n3)cc2OC)cc1 [Example 35] | 165 to 167 °C
COc1ccc(COc2ccc(-c3cn4ccccc4n3)cc2)cc1 [Example 36] | 215 to 218 °C
Clc1ccc(COc2ccc(-c3cn4ccccc4n3)cc2)cc1 [Example 37] | 229 to 231 °C
COc1cc(-c2cn3ccccc3n2)ccc1OCc1ccc([N+](=O)[O-])cc1 [Example 38] | 197 to 200 °C
Cc1cc(-c2cn3ccccc3n2)ccc1OCc1ccccc1 [Example 39] | 123 to 124 °C
O=C(O)c1cc(-c2cn3ccccc3n2)ccc1OCc1ccccc1 [Example 40] | 239 to 240 °C
COc1cc(-c2cn3ccccc3n2)cc(OC)c1OCc1ccccc1 [Example 41] | 154 to 155 °C
COc1cc(-c2cn3ccsc3n2)ccc1OCc1ccc(Br)cc1 [Example 42] | 134 to 136 °C
COc1cc(-c2cn3cc(C)sc3n2)ccc1OCc1ccc(Cl)cc1 [Example 43] | 156 to 158 °C
COc1cc(-c2cn3cc(C(=O)O)ccc3n2)ccc1OCc1ccc(C#N)cc1 [Example 44] | 242 to 243 °C
COc1cc(-c2cn3cc(C(=O)O)ccc3n2)ccc1OCc1ccc(Cl)cc1 [Example 45] | 251 to 253 °C
COC(=O)c1ccc2nc(-c3ccc(OCc4ccc(Cl)cc4)c(OC)c3)cn2c1 [Example 46] | 182 to 183 °C
COC(=O)c1cc(-c2cn3ccccc3n2)ccc1OCc1ccccc1 [Example 47] | 179 to 181 °C
COc1cc(-c2cn3ccsc3n2)ccc1OCc1ccc(C#N)cc1 [Example 48] | 179 to 181 °C

SMILES | melting point
COc1cc(-c2cn3ccsc3n2)ccc1OCc1ccc([N+](=O)[O-])cc1 [Example 49] | 189 to 191 °C
COC(=O)c1ccc(COc2ccc(-c3cn4ccccc4n3)cc2OC)cc1 [Example 50] | 125 to 126 °C
COc1cc(-c2cn3ccccc3n2)ccc1OCc1ccc(C(=O)O)cc1 [Example 51] | 245 to 247 °C
COc1cc(-c2cn3cc(Cl)cc(Cl)c3n2)ccc1OCc1ccccc1 [Example 52] | 163 to 165 °C
COc1cc(-c2cn3cc(C(F)(F)F)cc(Cl)c3n2)ccc1OCc1ccccc1 [Example 53] | 155 to 156 °C
COc1cc(-c2cn3cccc(O)c3n2)ccc1OCc1ccccc1 [Example 54] | 187 to 189 °C
COc1cc(-c2cn3cccc(OCc4ccccc4)c3n2)ccc1OCc1ccccc1 [Example 55] | 140 to 141 °C
COc1cc(-c2cn3cc(C)ccc3n2)ccc1OCc1ccc(Br)cc1 [Example 56] | 155 to 157 °C
COc1cc(-c2cn3cc(C)ccc3n2)ccc1OCc1ccc(C#N)cc1 [Example 57] | 168 to 169 °C
Oc1cc(-c2cn3ccccc3n2)ccc1OCc1ccccc1 [Example 59] | 169 to 171 °C
CCOc1cc(-c2cn3ccccc3n2)ccc1OCc1ccccc1 [Example 60] | 157 to 158 °C
CCCOc1cc(-c2cn3ccccc3n2)ccc1OCc1ccccc1 [Example 61] | 126 to 127 °C
c1ccc(COc2ccc(-c3cn4ccccc4n3)cc2OCc2ccccc2)cc1 [Example 62] | 122 to 124 °C
COc1cc(-c2cn3cc(C)cc(Br)c3n2)ccc1OCc1ccccc1 [Example 63] | 136 to 137 °C
COc1cc(-c2cn3cc(C)cc(Br)c3n2)ccc1OCc1ccc(Cl)cc1 [Example 64] | 136 to 138 °C
COc1cc(-c2cn3cc(C)cc(Br)c3n2)ccc1OCc1ccc(C#N)cc1 [Example 65] | 175 to 176 °C
COc1cc(-c2cn3cc(Br)ccc3n2)ccc1OCc1ccccc1 [Example 66] | 175 to 176 °C
Oc1cc(-c2cn3ccccc3n2)ccc1OCc1ccc(Cl)cc1 [Example 67] | 206 to 208 °C
CCOc1cc(-c2cn3ccccc3n2)ccc1OCc1ccc(Cl)cc1 [Example 68] | 136 to 137 °C
COc1cc(-c2cn3cc(Br)cc(C)c3n2)ccc1OCc1ccc(Cl)cc1 [Example 69] | 155 to 156 °C
COc1cc(-c2cn3cc(Br)c(C)c(C)c3n2)ccc1OCc1ccc(Cl)cc1 [Example 70] | 166 to 167 °C

SMILES | melting point
COc1cc(-c2cn3ccccc3n2)ccc1OCC1CC1 [Example 71] | 121 to 123 °C
c1ccc(Oc2ccc(-c3cn4ccccc4n3)cc2)cc1 [Example 72] | 164 to 165 °C
COc1cc(-c2cn3cccc(C)c3n2)ccc1OCc1ccc(Cl)cc1 [Example 73] | 132 to 133 °C
COc1cc(-c2cn3cccc(C)c3n2)ccc1OCc1ccc(C#N)cc1 [Example 74] | 144 to 146 °C
COc1cc(-c2cn3cccc(OCc4ccccc4)c3n2)ccc1OCc1ccc(Cl)cc1 [Example 75] | 164 to 166 °C
COc1cc(-c2nc3ccccc3[nH]2)ccc1OCc1ccccc1 [Example 76, 2-(4-benzyloxy-3-methoxyphenyl)benzimidazole] | 219 to 221 °C
COc1cc(-c2nc3ccccc3[nH]2)ccc1OCc1ccc(Cl)cc1 [Example 77] | 204 to 206 °C
COc1cc(-c2nc3ccccc3s2)ccc1OCc1ccccc1 [Example 78, 2-(4-benzyloxy-3-methoxyphenyl)benzothiazole] | 108 to 109 °C
COc1cc(-c2c[nH]c(-c3ccccc3)n2)ccc1OCc1ccccc1 [Example 79] | 190 to 192 °C
COc1cc(-c2cn3cc(Cl)cc(Cl)c3n2)ccc1OCc1ccc(Cl)cc1 [Example 80] | 162 to 163 °C
COc1cc(-c2cn3cc(Cl)cc(Cl)c3n2)ccc1OCc1ccc(C#N)cc1 [Example 81] | 187 to 189 °C
COc1cc(-c2cn3cccc(C)c3n2)ccc1OCc1ccc(Br)cc1F [Example 82] | 122 to 124 °C
COc1cc(-c2cn3cc(C)ccc3n2)ccc1OCc1ccc(Br)cc1F [Example 83] | 147 to 148 °C
COc1cc(-c2cn3ccsc3n2)ccc1OCc1ccc(Br)cc1F [Example 84] | 109 to 111 °C
COc1cc(-c2cn3cccc(OCc4ccccc4)c3n2)ccc1OCc1ccc(C#N)cc1 [Example 86] | 169 to 170 °C
COc1cc(-c2cn3cccc(OCc4ccccc4)c3n2)ccc1OCc1ccc(Br)cc1F [Example 87] | 108 to 109 °C
COc1cc(-c2cn3cccc(OC)c3n2)ccc1OCc1ccccc1 [Example 88] | 189 to 191 °C
COc1cc(-c2cn3cccc(OC)c3n2)ccc1OCc1ccc(Cl)cc1 [Example 89] | 132 to 134 °C
COc1cc(-c2cn3cccc(O)c3n2)ccc1OCc1ccc(Cl)cc1 [Example 90] | 220 to 222 °C
COc1cc(-c2cn3ccccc3n2)ccc1OCc1ccc(Cl)cc1F [Example 91] | 119 to 120 °C
